Reference: publication PMC4869678, “Synthesis and Evaluation of a 2,11‐Cembranoid‐Inspired Library” (Chemistry (Weinheim an Der Bergstrasse, Germany), 2016)
Converted amounts (≈) assume the structure as drawn.

Columns and labels:
[1] = PAMPA (parallel artificial membrane permeability assay); type: in vitro ADME
From the text: (§1) Due to a lack of UV chromophore and/or poor mass spectrometry ionisation, nephelometry46 was used to measure the solubility. PAMPA (parallel artificial membrane permeability assay)47 was used to assess the permeability.

[2] = Aqueous solubility by nephelometry; type: physicochemical; conditions: aqueous medium (not further specified), kinetic from dmso stock, measured by nephelometry
From the text: as §1

PC3 cells [3] = assay: SRB antiproliferative concentration-response assay; type: cell-based; conditions: Homo sapiens, PC-3, in vitro 96 h assay, full dose response curve
Experimental: (§2) Figure 6 a) Concentration–response curve for the antiproliferative effect of compound 28 on PC3 cells in vitro 96 h assay. b) Compound 28 inhibiting the migration properties of PC3 TEM cancer cells. FCS=fetal calf serum.
Cells were seeded in 100μl medium into 96-well plates. After 36 hours, serial doubling dilutions of drug (or vehicle) were added to give the required dose range in sextuplicate across the plate. Cells were incubated for a further 96 hours. The medium was then removed and cells were fixed by adding 50μl of 10% (w/v) trichloroacetic acid (TCA) for one hour at room temperature. The plates were gently washed by immersion in tap water three times then air dried. 50μl of 0.4% (w/v) SRB in 1% (v/v) acetic acid was added to each well for one hour. […] Absorbance at 570nm was measured using a SPECTRAmax 340PC plate reader.
(§3) Cells in standard tissue culture flasks were fluorescently labelled by incubation with 1umol/L CellTracker Green 5-chloromethylfluorescein diacetate (Invitrogen, Paisley) concomitant with serum starvation for two hours. Following trypsinisation cells were counted and added to the upper wells of 8um pore FluoroblokTM membrane inserts in 24-well companion plates (BD Biosciences, Franklin Lakes, NJ). […] Cells which successfully migrated to the lower surface of the filter were visualised using an inverted fluorescence

[4] = test system: PC3 human prostate cancer cell line; assay: NCI panel growth inhibition, PC3 line; type: cell-based; conditions: PC3, single concentration of 10 µM, 48 h, NCI screen, read-out: inhibition of proliferation
Experimental: A selection of fifteen of the cembranoid‐inspired compounds was screened against a panel of 60 cancer cell lines at the National Cancer Institute screening panel (see the Supporting Information).49 This cell‐based assay aims to discover compounds with a strong cytostatic or cytotoxic growth inhibition over 48 h. Unfortunately, only low levels (up to 20 %) of cell growth inhibition were seen when screened at a single concentration of 10 µM.

[5] = test system: Caco‐2 human intestinal cancer cells; assay: Permeability across a Caco-2 monolayer; type: in vitro ADME
[6] = Permeability across a Caco-2 monolayer; type: in vitro ADME, human; conditions: human, read-out: permeability across a monolayer of Caco‐2 cells
PC3 TEM cancer cells = assay: Migration assay (Fluoroblok membrane, FCS chemotaxis); type: cell-based, human; conditions: 3‐ and 5‐fold GI50 concentrations, FCS-stimulated migration
Experimental: as §2
Whereas cembranoid natural products may not be inherently cytotoxic, an appreciable number do display an ability to inhibit the migratory and invasive properties of cancer cells.50 The effect of compound 28 on a PC3‐based migratory assay was therefore determined.
Cells were seeded in 100μl medium into 96-well plates. After 36 hours, serial doubling dilutions of drug (or vehicle) were added to give the required dose range in sextuplicate across the plate. Cells were incubated for a further 96 hours. […] Absorbance at 570nm was measured using a SPECTRAmax 340PC plate reader.
as §3

[7] = test system: L1210 mouse lymphocytic leukemia cells; design: method as in earlier work; conditions: in vitro; cited from earlier work
cancer cells = test system: cancer cells; design: method as in PMID 20420415; conditions: 50 µM; cited from earlier work
PC3 cells [8] = conditions: 50 µM; cited from earlier work

CC1(C)CCC(=O)OCC2OC1C1CCCCC21 (stereo not drawn) [Compound 65] showed a permeability (Pe) [1] of over 150 ×10⁻⁶ cm/s and a solubility [2] of 550 µM (≈ 139 µg/mL).
OC1CCC=CCC2OC1C1CCCCC21 (stereo not drawn) [Compound 76] showed a solubility [2] of 500 µM (≈ 111 µg/mL).
Work on C=CCC1OC(COC(=O)C=CC)C2CC=CCC12 (stereo not drawn) [Compound 15] yielded a permeability (Pe) [1] of 25 ×10⁻⁶ cm/s and a solubility [2] of 500 µM (≈ 131 µg/mL).
In the case of O=C1CCC/C=C/C[C@@H]2O[C@H](CO1)[C@H]1CCCC[C@H]12 [Compound 28], the GI50 (PC3 cells [3]) is reported as 63 µM, the inhibition at 10 µM [4] is reported as 17% and the permeability (Pe) [1] is reported as 52 ×10⁻⁶ cm/s. The transporter efflux [5] was “no evidence of transporter efflux”, the Papp [6] was 16 ×10⁻⁶ cm/s and the “effect on cell migration” value (PC3 TEM cancer cells) was “reduction to near basal levels of migration”. For the same compound, the solubility [2] was 550 µM (≈ 145 µg/mL).
In the case of C=C1CC[C@H](C(C)C)[C@@H]2[C@H]1[C@H]1C[C@](C)(O)[C@@H](O)CC[C@@](C)(O)[C@@H]2O1 [sclerophytin A], the IC50 [7] is listed as 0.003 µM, the inhibition of migration (cancer cells) is listed as 85% and the effect on proliferation (PC3 cells [8]) is listed as “no effect on proliferation”.
